# Measurements published in US20030091553A1 (priority 2001, published 2003).
# Like-named read-outs stand apart in the source and are kept apart here.
# Tests used:
# [1] = tested on: early alcohol-induced liver injury
# Excerpt: (§1) Animals and Treatments. Female Wistar rats weighing between 200 and 275 g were fed ad libitum continuously for up to 4 weeks a liquid diet (Dyets, Bethlehem, Pa. #710034) in which 35% of the calories were from corn oil, […], 5% were from vitamins and minerals, 11% were from maltose-dextrin, and 36% were from ethanol. An isocaloric maltose-dextrin diet (Dyets, #710270) was used for control. Rats were given a single dose of ethanol (5 g/kg body weight intragastrically) using an 18-gauge oral biomedical device (Popper & Sons, Inc., New Hyde Park, N.Y.) diluted in PBS (pH 7.2; GIBCO Laboratories Life Technologies Inc., Grand Island, N.Y.) every 24 hours. Control animals were gavaged with PBS alone. Either histamine dihydrochloride (0.5 mg/kg or 5.0 mg/kg; Sigma Chemical Co., St. Louis, Mo.) or vehicle (PBS, pH 7.4; GIBCO Laboratories Life Technologies Inc., Grand Island, N.Y.) was administered by subcutaneous injection twice daily for 4 weeks. Body weights of each rat were measured daily. Rats were housed in a pathogen-free facility and the institutional animal care and use committee approved the surgical procedures used in this study.
# Pathological Evaluation. After 2 and 4 weeks of ethanol treatment, livers were formalin fixed, embedded in paraffin, and stained with hematoxylin and eosin to assess steatosis, inflammation, and necrosis. Liver pathology was scored in a blinded manner by an outside expert as follows:
# 1. Degree of steatosis, score 0-4 (based on % of hepatocytes containing lipid)
# 2. Degree of inflammatory cell infiltration, score 0-4
# 3. Degree of degeneration and necrosis, score 0-4
# The points for each grade of histological evaluation were compiled into a total score for each liver.
# Severity scores for each finding in each group were summed and then divided by the number of animals evaluated per group. The groups were assigned scores as follows: None=0; […].
# [2] = both histamine treated groups versus ethanol alone treated group
# Excerpt: as §1
# [3] = tested on: early alcohol-induced liver injury; remark: listed apart in the source
# Excerpt: as §1
# [4] = tested on: CD3+T-cells, CD3-/56+ NK-cells and CD3+/56+ NK/T-cells; details: all cell types; induced by autologous monocytes or granulocytes; p<0.001
# Excerpt: (§2) This example illustrates the effect of histamine on the lymphocytes isolated from human liver. […] All data are the mean±s.e.m. (n=15-30 blood donors).
# [5] = tested on: drug-induced liver damage; details: oral tablet with isoniazid, six to twelve months, versus isoniazid alone
# Description: An individual presenting with tuberculosis is prescribed an oral tablet comprising isoniazid and an effective dose of histamine for a period of six to twelve months. During the treatment period, the patient is monitored by a physician and lab tests to check the status of the patient's liver in response to the medication are performed.
# [6] = Effect of the duration of administration of histamine; details: administered over longer than about 30 minutes
# [7] = tested on: drug-induced liver damage; details: daily oral dose of 10 mg, patient on phenytoin three times a day
# Description: An epileptic taking phenytoin three times a day to control seizures is supplemented with a daily oral dose of 10 mg of histamine dihydrochloride. Prior to supplementation with histamine dihydrochloride, the epileptic experiences liver damage as a consequence of taking phenytoin as confirmed by liver biopsy.
# [8] = tested on: NK-cells; details: 25 μM hydrogen peroxide, n=8, mean±s.e.m.
# Excerpt: as §2
# [9] = tested on: NK/T-cells; details: 25 μM hydrogen peroxide, n=8, mean±s.e.m.
# Excerpt: as §2
# [10] = tested on: T-cells; details: 25 μM hydrogen peroxide, n=8, mean±s.e.m.
# Excerpt: as §2
# [11] = tested on: hepatotoxic effect of comfrey; test: Catalase supplement in an individual consuming comfrey; assay type: in vivo, human; details: 8 mg/day
# Description: The common herb comfrey can be administered as a poultice or tea drink to as an expectorant, demulcent, and/or tonic. However, consumption of comfrey has been linked to liver damage. In order to minimize the hepatotoxic effect of comfrey, an individual consuming comfrey as an herbal remedy is supplemented with 8 mg/day of catalase.
# [12] = tested on: hepatic tissue damage secondary to pancreatitis; details: 100 μg/kg per day over one to two weeks, acute pancreatitis
# Description: A patient presenting with acute pancreatitis is identified. The patient is administered 100 μg/kg histamine diphosphate per day over a period of one to two weeks. A liver biopsy is performed upon resolution of the pancreatitis.
compound,measurement,setting,value
"NCCc1c[nH]cn1 [Histamine, histamine]",liver injury,"[1]; 0.5 mg/kg or 5 mg/kg twice daily s.c., highest dose most effective",blunted liver injury in a dose dependent manner
same,"Histologic Findings in Liver, Mean Group Severity Scores, Total Overall Score","[1]; High Histamine (5.0 mg/kg s.c. twice daily), Week 2 of ethanol treatment",2.00
same,"Histologic Findings in Liver, Mean Group Severity Scores, Total Overall Score","[1]; High Histamine (5.0 mg/kg s.c. twice daily), Week 4 of ethanol treatment",2.57
same,"Histologic Findings in Liver, Mean Group Severity Scores, Total Overall Score","[1]; Low Histamine (0.5 mg/kg s.c. twice daily), Week 2 of ethanol treatment",3.33
same,"Histologic Findings in Liver, Mean Group Severity Scores, Total Overall Score","[1]; Low Histamine (0.5 mg/kg s.c. twice daily), Week 4 of ethanol treatment",3.17
same,appearance of excised livers,"[1]; histamine treated, ethanol-fed rats",comparative in appearance to livers from the non-ethanol treated group
same,recovery of body weight,[2],recovered their body weights more quickly
same,pathology scores and serum transaminase levels,[3]; 0.5 mg/kg or 5 mg/kg twice daily s.c.,normalization
same,ALT activity,"[3]; preliminary results, ethanol control group 2-3 fold increase",somewhat normal ALT activity
same,apoptosis of lymphocytes,[4],significantly prevented
same,liver damage by laboratory tests,[5],no damage to the patient's liver
same,efficacy,[6],decreased or lack of efficacy
Cl.Cl.NCCc1c[nH]cn1 [histamine dihydrochloride],liver damage,[7],further damage to the tissue of the liver is prevented
OO [hydrogen peroxide],cells that became apoptotic,[8],65±7%
same,cells that became apoptotic,[9],78±7%
same,cells that became apoptotic,[10],35±5%
catalase,hepatic injury,[11],No hepatic injury is observed
histamine diphosphate,damage to hepatic tissue (liver biopsy),[12],prevents damage to hepatic tissue
same,incidence of infection associated with pancreatitis,[12],lowers the incidence of infection associated with pancreatitis
